Test results as given in paper PMC12216609, “Inhibitors of eIF1A-ribosome interaction unveil uORF-dependent regulation of translation initiation and antitumor and antiviral effects” (The EMBO Journal, 2025).
Values joined by “and” are separate entries in the source; they are usually repeats but may differ in a detail not shown here. Equal values may be shown once. Read-outs that look alike come from different tables or passages of the source.

What was measured:
eIF1A = target: T1, eIF1A (Homo sapiens, UniProt P47813); format: binding; settings: for fluorescence ratio, eIF1A: background-corrected, relative to DMSO or lowest 1Ai concentration, replicate columns; for WT eIF1A IC50: fluorescence binding
T1 construct: His-bdSUMO (cleaved yes); made in house; host or cells: E. coli BL-21
T1 sequence (P47813 whole entry): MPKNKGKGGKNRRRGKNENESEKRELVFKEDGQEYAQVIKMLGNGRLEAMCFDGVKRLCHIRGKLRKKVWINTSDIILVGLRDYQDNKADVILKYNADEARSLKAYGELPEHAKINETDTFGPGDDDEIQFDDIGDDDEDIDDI

RPS10 = target: T2, RPS10 (Homo sapiens, UniProt P46783); format: binding
T2 construct: made in house; host or cells: E. coli BL-21

[1] = system: CUG/GUG vs AUG start codon luciferase reporters in HEK293T cells; test: Near-cognate AUG starting codon fidelity reporter assay (GUG, CUG vs AUG); format: cell-based; settings: for CUG vs AUG (%): CUG start codon reporter relative to AUG reporter (AUG = 100); for CUG vs AUG (%) / GUG vs AUG (%): single-experiment calculation; for GUG vs AUG (%): GUG start codon reporter relative to AUG reporter (AUG = 100); for average CUG and GUG / average CUG and GUG relative to DMSO / CUG Average / GUG Average: NUG experiment; for CUG Average: CUG vs AUG reporter; for GUG Average: GUG vs AUG reporter; for NUG (Final data, Fig. 1E): average CUG and GUG relative to DMSO, 20 µM overnight; for GUG vs AUG data (%): individual repeat; for GUG vs AUG (%) Average: summary average of repeats, DMSO control average […]
[2] = system: cap-proximal AUG GFP reporter in HEK293T cells; format: cell-based; settings: GFP WB densitometry; 20 µM overnight; dmso 0.965946;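 further: ratio of upstream to downstream AUG initiation products on GFP Western blot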
[3] = system: IRF7 5'UTR firefly luciferase reporter in HEK293T cells; settings: for Reference vs IRF7 (Final data, Fig. 1E): 1/Result, relative to DMSO; for LONG (summary - All), normalized to DMSO / SHORT (summary - All), normalized to DMSO: individual replicates, outliers excluded, DMSO = 1; for SHORT (summary - All), normalized to DMSO / Short: Normalized to average DMSO: Short reporter; for average ( long vs short ratio): summary - All;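 on all read-outs here: luciferase signal corrected by a co-transfected GFP reporter for transfection efficiency, read after overnight compound exposure, with Long and Short reporters differing in 5'UTR length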
Protocol: For the effect on ribosomal scanning, we used two firefly luciferase reporter genes that differ in their 5'UTR length (Fig. 1C). […] Cells were transfected with these reporters along with a GFP reporter gene used to normalize transfection efficiency. After an overnight 1Ai or DMSO (vehicle control) exposure, luciferase and GFP expression were measured, and normalized activity was determined.
For the reference vs IRF7 5'UTR luciferase reporter assay, HEK239T cells in a 12-well plate were transfected with the previously described IRF7 5'UTR or reference firefly luciferase reported genes (Sehrawat et al, [2019]) (100 ng/well) together with GFP (20 ng/well) that served as an internal control by CaCl2 transfection. After 6 h, half of the growth medium was replaced with a medium containing the different compounds, reaching a final concentration of 20 µM. Twenty-four hours after transfection, transfection efficiency was evaluated using GFP fluorescence intensity (Cytation 5, ex/em: 470/525). Cells were harvested in 50 µL Reported lysis buffer (RLB) and put on a shaker for 10 min. From each well 5 µL were taken in duplicates and tested by luminometer.

[4] = summary table, fluorescence binding assay, read-out: IC50 concentration (µM), RPS10
[5] = summary table, fluorescence binding assay
[6] = compound at 10uM (summary head)

Row | Compound | fluorescence ratio, eIF1A (eIF1A; 1Ai conc. 0.25 uM) | fluorescence ratio, eIF1A (eIF1A; 1Ai conc. 0.5 uM) | fluorescence ratio, eIF1A (eIF1A; 1Ai conc. 1 uM) | fluorescence ratio, eIF1A (eIF1A; 1Ai conc. 2 uM) | fluorescence ratio, eIF1A (eIF1A; 1Ai conc. 4 uM) | fluorescence ratio, eIF1A (eIF1A; 1Ai conc. 8 uM) | fluorescence ratio, eIF1A (eIF1A; 1Ai conc. 16 uM) | fluorescence ratio, eIF1A (eIF1A; 1Ai conc. 32 uM) | fluorescence ratio, eIF1A (eIF1A; 1Ai conc. 64 uM) | fluorescence ratio, eIF1A (eIF1A; 1Ai conc. 256 uM) | RPS10 fluorescence ratio to control (RPS10; 1Ai conc. 0.25 uM) | RPS10 fluorescence ratio to control (RPS10; 1Ai conc. 0.5 uM) | RPS10 fluorescence ratio to control (RPS10; 1Ai conc. 2 uM) | RPS10 fluorescence ratio to control (RPS10; 1Ai conc. 4 uM) | RPS10 fluorescence ratio to control (RPS10; 1Ai conc. 8 uM) | RPS10 fluorescence ratio to control (RPS10; 1Ai conc. 16 uM) | RPS10 fluorescence ratio to control (RPS10; 1Ai conc. 32 uM) | RPS10 fluorescence ratio to control (RPS10; 1Ai conc. 64 uM) | RPS10 fluorescence ratio to control (RPS10; 1Ai conc. 256 uM) | average CUG and GUG [1] | further results
1 | COc1cccc(Nc2nc(-c3ccc(NC(C)=O)cc3)c(C)s2)c1 [1Ai-1869] | 0.7968 and 0.7342 | 0.8838 and 0.7405 | 0.8128 and 0.72 | 1.007 and 0.8137 | 0.913 and 0.7844 | 0.7676 and 0.6709 | 0.6554 and 0.584 | 0.5701 and 0.4814 | 0.4848 and 0.4176 | 0.3469 and 0.3333 | 0.7198 | 0.6885 | 0.5996 | 0.5488 | 0.4668 | 0.3725 | 0.2785 | 0.234 | 0.2345 | 3.262 | IC50 (eIF1A; eIF1A, from the titration data, read-out: IC50 (eIF1A titration block)): 20.4 µM; IC50 (eIF1A; summary table, fluorescence binding assay, read-out: IC50 concentration (µM), WT eIF1A): 20.4 µM; RPS10 fluorescence ratio to control (RPS10; 1Ai conc. 1 uM): 0.6476; IC50 (RPS10; read-out: IC50 (line under RPS10 binding data)): 7.7 µM; IC50 (RPS10; read-out: RPS10 IC50): 7.7 µM; IC50 (RPS10; [4]): 7.7 µM; CUG vs AUG (%) ([1]; compound at 5uM (summary head)): 5.139%; GUG vs AUG (%) ([1]; compound at 5uM (summary head)): 1.3841%; average CUG and GUG relative to DMSO [1]: 0.7232; CUG Average [1]: 5.139; GUG Average [1]: 1.3841; NUG (Final data, Fig. 1E) [1]: 0.723; GUG vs AUG data (%) ([1]; compound at 5uM): 2.01% and 1.38%; GUG vs AUG (%) Average ([1]; compound at 5uM): 1.70%; US/DS ratio, average [2]: 1.144; Reference vs IRF7 (Final data, Fig. 1E) ([3]; 20 µM): 1.329; LONG (summary - All), normalized to DMSO ([3]; Long reporter, 5 µM): 0.51 and 0.25 and 0.61; SHORT (summary - All), normalized to DMSO ([3]; 5 µM): 0.54 and 0.69 and 0.59; Short: Normalized to average DMSO ([3]; data section, GFP-corrected, 5 µM, per experiment, includes values excluded as outliers): 0.5397 and 0.69 and 0.5937; average ( long vs short ratio) ([3]; 5 µM): 0.752
2 | O=C(CSc1nc(-c2ccccc2)cn1-c1ccccc1)NC(=O)Nc1ccccc1 [1Ai-2383] | 0.9677 and 0.9798 | 0.9803 and 0.9815 | 1.02 and 0.9558 | 1.009 and 0.948 | 0.993 and 0.9579 | 0.9438 and 0.997 | 1.039 and 1.06 | 1.096 and 1.111 | 1.232 and 1.231 | 1.523 and 1.464 | 1.003 | 0.5095 | 0.4799 | 0.3805 | 0.08815 | 0.2868 | 0.02728 | 0.2465 | 0.3391 | 5.372 | WT eIF1A IC50 (eIF1A): No binding; IC50 concentration (µM), WT eIF1A (eIF1A; [5]): No binding; RPS10 fluorescence ratio to control (RPS10; 1Ai conc. 1 uM): 0.4927; IC50 (RPS10; fluorescence binding, read-out: RPS10 IC50): 0.7 µM; IC50 (RPS10; source data Fig. 2B, read-out: IC50 (line under RPS10 binding data)): 0.66 µM; IC50 (RPS10; [4]): 0.661 µM; average CUG and GUG relative to DMSO [1]: 1.191; CUG Average [1]: 8.595; GUG Average [1]: 2.149; NUG (Final data, Fig. 1E) [1]: 1.191; GUG vs AUG data (%) ([1]; compound at 20uM): 2.05% and 2.35% and 1.83% and 2.36%; GUG vs AUG (%) Average ([1]; compound at 20uM): 2.15%; US/DS ratio, average [2]: 0.4898; Reference vs IRF7 (Final data, Fig. 1E) ([3]; 20 µM): 1.265; LONG (summary - All), normalized to DMSO ([3]; Long reporter, 20 µM): 0.91 and 0.57 and 0.60; SHORT (summary - All), normalized to DMSO ([3]; 20 µM): 0.93 and 0.86 and 0.76; Long: Normalized to average DMSO ([3]; data section, Long reporter, GFP-corrected, 20 µM, per experiment, includes values excluded as outliers): 0.9138 and 0.5713 and 0.6011 and 0.6048; Short: Normalized to average DMSO ([3]; data section, GFP-corrected, 20 µM, per experiment, includes values excluded as outliers): 0.9324 and 0.8573 and 0.5797 and 0.7642; average ( long vs short ratio) ([3]; 20 µM): 0.790
3 | COc1ccc2oc(C(=O)OC(C)C(=O)Nc3sccc3C(N)=O)c(C)c2c1 (stereo not drawn) [1Ai-3044] | 0.7896 and 0.9625 | 0.8401 and 0.9684 | 0.783 and 0.965 | 1.321 and 0.9132 | 1.411 and 0.9093 | 1.361 and 0.8279 | 1.171 and 0.7406 | 1.256 and 0.7959 | 1.351 and 0.8195 | 1.419 and 0.8072 | 1 | 1.015 | 1.108 | 1.108 | 1.07 | 0.983 | 0.9928 | 1.135 | 1.327 | 5.9112 | WT eIF1A IC50 (eIF1A): No binding; IC50 concentration (µM), WT eIF1A (eIF1A; [5]): No binding; RPS10 IC50 (RPS10; fluorescence binding): No binding; IC50 concentration (µM), RPS10 (RPS10; [5]): No binding; CUG vs AUG (%) [1, 6]: 8.177%; GUG vs AUG (%) [1, 6]: 1.952%; average CUG and GUG relative to DMSO [1]: 1.3106; CUG Average [1]: 9.682; GUG Average [1]: 2.141; NUG (Final data, Fig. 1E) [1]: 1.311; GUG vs AUG data (%) ([1]; compound at 10uM): 2.24% and 1.90% and 2.01% and 2.41%; GUG vs AUG (%) Average ([1]; compound at 10uM): 2.14%; US/DS ratio, average [2]: 0.9145; Reference vs IRF7 (Final data, Fig. 1E) ([3]; 20 µM): 0.527; LONG (summary - All), normalized to DMSO ([3]; Long reporter, 10 µM): 0.55 and 1.64 and 1.20 and 0.82 and 1.11; SHORT (summary - All), normalized to DMSO ([3]; 10 µM): 0.72 and 0.67 and 0.70 and 0.63; Long 5'UTR reporter luciferase activity, normalized to DMSO (=1), single replicates ([3]; compound at 10 µM, left data block (Long), source data of Fig 1C): 0.5511 and 1.639 and 1.204 and 0.8163 and 1.106; average ( long vs short ratio) ([3]; 10 µM): 1.568
